Experimental data reported in patent publication US5698529A, “Chemotherapeutic compositions” (Supratek Pharma, Inc., priority 1996, dated 1997).
Converted amounts (≈) assume the structure as drawn. Like-named read-outs stand apart in the source and are kept apart here.

How the values were obtained:
MCF-7AU = assay: Cytotoxicity against daunorubicin/verapamil-resistant MCF-7AU not expressing P-170; type: cell-based, human
Excerpt: (§1) The daunorubicin composition of Example 3 {Prep. […] B}.

[1] = tested on: human ovarian carcinoma cells (CRL157); assay: Cytotoxicity to human ovarian carcinoma cells (CRL157), Example 1; type: cell-based; conditions: Ovarian carcinoma cell
Experimental: A. A block copolymer of poly(oxyethylene)-poly(oxypropylene) in which N=0.25 (Pluronic F-68) is diluted with RPMI 1640 medium to a final concentration of 2.0% at 4° C. The mixture is incubated for 30 minutes at 37° C. and then sterilely filtered through a 0.22 μm filter. An equal volume of a solution of 200 μg daunorubicin in RPMI 1640 medium is added and this mixture is incubated for 30 minutes at 37° C.
(§2) B. Human ovarian carcinoma cells (CRL157) are precultured in 1% solution of the same block copolymer but without daunorubicin in RPMI 1640 medium supplemented with 10% calf fetal serum. The preparation of part A is added and the mixture is incubated for 60 minutes at 37° C. and the cells then washed three times with RPMI 1640 and cultured in RPMI 1640 supplemented with 10% calf fetal serum for 3 days {Prep. A}. Cytotoxicity is measured, both for this preparation and a parallel preparation of free daunorubicin {Prep. B}, using the method of Alley et al., Cancer Res., 48, 589-601 (1988).

MTD in mice = conditions: mouse, in vivo, ip, C57B1/6 female mice, 14 days
Excerpt: B and Prep. A, respectively}, and are observed for 14 days.
The MTD is defined as a dose which leads to no daunorubicin-deaths (any higher dose leads to the daunorubicin-related death of at least 1 animal per group). The experiment is repeated twice. The results are reproducible with less that 10% variation.

CRL157 cells = assay: Cytotoxicity to CRL157 cells after incubation of preparations in the dark at 37° C.; type: cell-based; conditions: Homo sapiens
Experimental: as §2, with “(1988). The results are as follows:” for “(1988).”
Micellar daunorubicin obtained as described in Example 3 {Prep. A} and free daunorubicin {Prep. B} are incubated in the dark at 37° C. and cytotoxicity to CRL157 cells in then determined in the manner discussed in Part B of Example 1.

[2] = tested on: human T-lymphoma (Jurkat) cells; assay: IC50 at intervals of drug contact, Jurkat cells, Example 5; type: cell-based
Experimental: (§3) Measurements are made at the indicated intervals of the drug contact with the cells from 15 minutes to 12 hours.

Dox-MCF-7 = assay: Cytotoxicity against daunorubicin-resistant, verapamil-sensitive Dox-MCF-7 expressing P-170; type: cell-based, human
Excerpt: as §1

SKVO3 cells [3] = assay: Cytotoxic activity of plasma of inoculated mice on SKVO3 cells; type: cell-based, human
Experimental: (§4) Anti-neoplastic activity is determined by evaluation of the cytotoxic activity of plasma of mammals inoculated with the test composition (see de Valeriola et el., Cancer Chemother. Pharmacol. 29, 133-140, 1991).
(§5) Groups (6 animals/group) of C57B1/6 7-week-old female mice are inoculated i.v. (via the tail vein) with free or micellar (N=1.3) daunorubicin obtained as described in Example 3 {Prep. B and Prep. A, respectively}. Drug concentrations (MTD) are adjusted so that a maximum volume of 0.1 mL is injected in each mouse. The experiment is repeated twice.
(§6) To obtain plasma samples, blood (10 μl) is collected from the tail artery one hour after drug administration, diluted 1:10 with sterile RPMI 1640 medium, and centrifuged at 400 g for 15 minutes. […] The cells are incubated for two hours at 37° C. and 5% CO2, and then washed three times with RPMI 1640. The pretreated cells are incubated in RPMI 1640 supplemented with 10% fetal calf serum at 37° C. and 5% CO2 for three days, after which cytotoxicity is determined as described in Example 1.
(§7) The procedure of Example 16 is repeated utilizing SKVLB and SRVO3 cells.

[4] = tested on: normal human mononuclear cells; assay: IC50 at intervals of drug contact, normal mononuclear cells, Example 5; type: cell-based
Experimental: as §3

SKVLB cells [5] = assay: Cytotoxic activity of plasma of inoculated mice on SKVLB cells; type: cell-based, human
Experimental: as §4, §5, §6, §7

SKVLB cells [6] = assay: cells; type: cell-based; conditions: Homo sapiens
Excerpt: (§8) The antineoplastic agent vinblastine is incorporated into the block copolymer mixture described in Example 3.
(§9) The antineoplastic agent mitomycin C is incorporated into the block copolymer mixture described in Example 3.
(§10) The antineoplastic agent methotrexate is incorporated into the block copolymer mixture described in Example 3.
(§11) The antineoplastic agent daunorubicin is incorporated into the block copolymer mixture described in Example 3.

SKVO3 cells [7] = assay: cells; type: cell-based; conditions: Homo sapiens; SKVO3, drug-sensitive; read-out: IC50
Excerpt: as §8, §9, §10, §11

[8] = plasma dilution 1:20, 10 mg/kg daunorubicin
[9] = plasma dilution 1:20, MTD of daunorubicin
[10] = plasma dilution 1:200, 10 mg/kg daunorubicin
[11] = plasma dilution 1:200, MTD of daunorubicin
[12] = plasma dilution 1:2000, 10 mg/kg daunorubicin
[13] = plasma dilution 1:2000, MTD of daunorubicin

COc1cccc2c1C(=O)c1c(O)c3c(c(O)c1C2=O)C[C@@](O)(C(C)=O)C[C@@H]3O[C@H]1C[C@H](N)[C@H](O)[C@H](C)O1 [Prep. B, daunorubicin]
inhibition at 0.016 µg/mL (MCF-7AU; Homo sapiens): 3%
inhibition at 0.08 µg/mL (MCF-7AU; Homo sapiens): 9%
inhibition at 0.4 µg/mL (MCF-7AU; Homo sapiens): 37%
inhibition at 2 µg/mL (MCF-7AU; Homo sapiens): 65%
inhibition at 10 µg/mL (MCF-7AU; Homo sapiens): 89%
inhibition at 50 µg/mL (MCF-7AU; Homo sapiens): 100%
IC50 (in words) (MCF-7AU; resistant line MCF-7AU, statement for both resistant lines): higher IC50 's (is less toxic)
inhibition at 0.016 µg/mL [1]: 1%
inhibition at 0.08 µg/mL [1]: 20%
inhibition at 0.4 µg/mL [1]: 38%
inhibition at 2 µg/mL [1]: 53%
inhibition at 10 µg/mL [1]: 81%
inhibition at 50 µg/mL [1]: 100%
MTD at 336 h (MTD in mice): 2 mg/kg
IC50 (CRL157 cells; 2 h): 0.4 µg/mL (≈ 0.758 µM)
IC50 (CRL157 cells; 4 h): 0.475 µg/mL (≈ 0.9 µM)
IC50 (CRL157 cells; 12 h): 1.12 µg/mL (≈ 2.12 µM)
IC50 (CRL157 cells; 24 h): 6.3 µg/mL (≈ 11.9 µM)
IC50 (CRL157 cells; 48 h): 10.2 µg/mL (≈ 19.3 µM)
IC50 (CRL157 cells; 96 h): 48.9 µg/mL (≈ 92.7 µM)
IC50 ([2]; 0.25 h): 0.12 µg/mL (≈ 0.227 µM)
IC50 ([2]; 0.5 h, drug contact 0.50 hours, read-out: IC50): 0.068 µg/mL (≈ 0.129 µM)
IC50 ([2]; 0.75 h): 0.035 µg/mL (≈ 0.0663 µM)
IC50 ([2]; 1 h): 0.025 µg/mL (≈ 0.0474 µM)
IC50 ([2]; 2 h): 0.019 µg/mL (≈ 0.036 µM)
IC50 ([2]; 4 h): 0.016 µg/mL (≈ 0.0303 µM)
IC50 ([2]; 8 h): 0.003 µg/mL (≈ 0.00569 µM)
IC50 ([2]; 12 h): 0.0052 µg/mL (≈ 0.00986 µM)
inhibition at 0.016 µg/mL (Dox-MCF-7; Homo sapiens): 2%
inhibition at 0.08 µg/mL (Dox-MCF-7; Homo sapiens): 7%
inhibition at 0.4 µg/mL (Dox-MCF-7; Homo sapiens): 39%
inhibition at 2 µg/mL (Dox-MCF-7; Homo sapiens): 62%
inhibition at 10 µg/mL (Dox-MCF-7; Homo sapiens): 86%
inhibition at 50 µg/mL (Dox-MCF-7; Homo sapiens): 100%
IC50 (in words) (Dox-MCF-7; resistant line Dox-MCF-7, statement for both resistant lines): higher IC50 's (is less toxic)
Inhibition, % (SKVO3 cells [3]; [8]): 22%
Inhibition, % (SKVO3 cells [3]; [9]): 9%
Inhibition, % (SKVO3 cells [3]; [10]): 6%
Inhibition, % (SKVO3 cells [3]; [11]): 0%
Inhibition, % (SKVO3 cells [3]; [12]): 0%
Inhibition, % (SKVO3 cells [3]; [13]): 0%
IC50 ([4]; 0.25 h): 4.9 µg/mL (≈ 9.29 µM)
IC50 ([4]; 0.5 h): 0.98 µg/mL (≈ 1.86 µM)
IC50 ([4]; 0.75 h): 0.405 µg/mL (≈ 0.768 µM)
IC50 ([4]; 1 h): 0.31 µg/mL (≈ 0.588 µM)
IC50 ([4]; 2 h): 0.29 µg/mL (≈ 0.55 µM)
IC50 ([4]; 4 h): 0.275 µg/mL (≈ 0.521 µM)
IC50 ([4]; 8 h): 0.28 µg/mL (≈ 0.531 µM)
IC50 ([4]; 12 h): 0.24 µg/mL (≈ 0.455 µM)
Inhibition, % (SKVLB cells [5]; [8]): 8%
Inhibition, % (SKVLB cells [5]; [9]): 0%
Inhibition, % (SKVLB cells [5]; [10]): 0%
Inhibition, % (SKVLB cells [5]; [11]): 0%
Inhibition, % (SKVLB cells [5]; [12]): 0%
Inhibition, % (SKVLB cells [5]; [13]): 0%
IC50 (SKVLB cells [6]): 5.85 µg/mL (≈ 11.1 µM)
IC50 (SKVO3 cells [7]): 0.62 µg/mL (≈ 1.18 µM)
